Data: paper PMC5346462 (Biochimie, 2017)

Tests used:
[1] = target: T1, MiGSTU (Mangifera indica glutathione S-transferase Tau class) (Mangifera indica, UniProt A0A1P8NWC2); test: steady-state enzyme kinetics of the purified enzyme; type: biochemical; conditions: read-out: CDNB / Km
T1 sequence (A0A1P8NWC2 1-229): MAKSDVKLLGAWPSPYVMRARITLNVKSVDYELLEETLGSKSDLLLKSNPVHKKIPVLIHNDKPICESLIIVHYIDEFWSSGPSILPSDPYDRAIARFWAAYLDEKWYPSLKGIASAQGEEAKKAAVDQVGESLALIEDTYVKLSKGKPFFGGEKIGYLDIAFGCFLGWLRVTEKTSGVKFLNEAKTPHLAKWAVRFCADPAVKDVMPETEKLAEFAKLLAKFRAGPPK

[2] = target: Mangifera indica glutathione S-transferase Tau class (MiGSTU) (mango (Mangifera indica)); test: SEC

Compound | Km [1] | stoichiometry N [2]
O=[N+]([O-])c1ccc(Cl)c([N+](=O)[O-])c1 [CDNB] | 792 µM | –
Mangifera indica glutathione S-transferase Tau class (MiGSTU) (enzyme) | – | 2
